Measured values reported in ChEMBL document CHEMBL3046027, “In vitro and in vivo antifungal activity of synthetic pure isothiocyanates against Sclerotinia sclerotiorum” (Pest Manag Sci, 2011).

Key:
Sclerotinia sclerotiorum [1] = assay: In vivo antifungal Sclerotinia sclerotiorum in Pepper (Capsicum annuum L. cv. Sera Demre) assessed as inhibition of mycelial growth in volatile phase at 158 umol/L measured after 10 to 14 weeks; type: functional
Sclerotinia sclerotiorum [2] = assay: In vivo antifungal Sclerotinia sclerotiorum in Pepper (Capsicum annuum L. cv. Sera Demre) assessed as inhibition of mycelial growth in volatile phase at 79 umol/L measured after 10 to 14 weeks; type: functional
Sclerotinia sclerotiorum [3] = assay: Antifungal activity against Sclerotinia sclerotiorum assessed as inhibition of mycelial growth in contact phase at 2358 umol/l measured at 20 degC after 5 days; type: functional; details: 120 h, read-out: GI
Sclerotinia sclerotiorum [4] = assay: Antifungal activity against Sclerotinia sclerotiorum assessed as inhibition of mycelial growth in contact phase at 1572 umol/l measured at 20 degC after 5 days; type: functional; details: 120 h, read-out: GI
Sclerotinia sclerotiorum [5] = assay: Antifungal activity against Sclerotinia sclerotiorum assessed as inhibition of mycelial growth in contact phase at 786 umol/l measured at 20 degC after 5 days; type: functional; details: 120 h, read-out: GI
Sclerotinia sclerotiorum [6] = assay: Antifungal activity against Sclerotinia sclerotiorum assessed as inhibition of mycelial growth in contact phase at 708 umol/l measured at 20 degC after 5 days; type: functional; details: 120 h, read-out: GI
Sclerotinia sclerotiorum [7] = assay: Antifungal activity against Sclerotinia sclerotiorum assessed as inhibition of mycelial growth in contact phase at 550 umol/l measured at 20 degC after 5 days; type: functional; details: 120 h, read-out: GI
Sclerotinia sclerotiorum [8] = assay: Fungistatic activity in Sclerotinia sclerotiorum assessed as inhibition of carpogenic germination in volatile phase at 786 umol/l measured at 20 degC after 5 days relative to control; type: functional; details: 120 h
Sclerotinia sclerotiorum [9] = assay: Fungistatic activity in Sclerotinia sclerotiorum assessed as inhibition of carpogenic germination in volatile phase at 393 umol/l measured at 20 degC after 5 days relative to control; type: functional; details: 120 h
Sclerotinia sclerotiorum [10] = assay: Fungistatic activity in Sclerotinia sclerotiorum assessed as inhibition of carpogenic germination in volatile phase at 79 umol/l measured at 20 degC after 5 days relative to control; type: functional; details: 120 h
Sclerotinia sclerotiorum [11] = assay: Antifungal activity against Sclerotinia sclerotiorum assessed as inhibition of mycelial growth in volatile phase at 786 umol/l measured at 20 degC after 5 days; type: functional; details: 120 h, read-out: GI
Sclerotinia sclerotiorum [12] = assay: Fungistatic activity in Sclerotinia sclerotiorum assessed as sclerotial viability measured at 20 degC after 5 days; type: functional, organism-based; details: 120 h
Sclerotinia sclerotiorum [13] = assay: Fungistatic activity in Sclerotinia sclerotiorum assessed as inhibition of mycelial growth in volatile phase measured at 20 degC after 5 days; type: functional, organism-based; details: 120 h
Sclerotinia sclerotiorum [14] = assay: Fungistatic activity in Sclerotinia sclerotiorum assessed as inhibition of mycelial growth in contact phase measured at 20 degC after 5 days; type: functional, organism-based; details: 120 h
Sclerotinia sclerotiorum [15] = assay: Fungistatic activity in Sclerotinia sclerotiorum assessed as viability in volatile phase at 786 umol/l measured at 20 degC after 5 days relative to control; type: functional; details: 120 h, read-out: GI
Sclerotinia sclerotiorum [16] = assay: Fungistatic activity in Sclerotinia sclerotiorum assessed as inhibition of mycelial growth in contact phase at 2358 umol/l measured at 20 degC after 5 days relative to control; type: functional; details: 120 h, read-out: GI
Sclerotinia sclerotiorum [17] = assay: Antifungal activity against Sclerotinia sclerotiorum assessed as inhibition of mycelial growth in volatile phase at 550 umol/l measured at 20 degC after 5 days; type: functional; details: 120 h, read-out: GI
Sclerotinia sclerotiorum [18] = assay: Antifungal activity against Sclerotinia sclerotiorum assessed as inhibition of mycelial growth in volatile phase at 393 umol/l measured at 20 degC after 5 days; type: functional; details: 120 h, read-out: GI
Sclerotinia sclerotiorum [19] = assay: Antifungal activity against Sclerotinia sclerotiorum assessed as inhibition of mycelial growth in volatile phase at 79 umol/l measured at 20 degC after 5 days; type: functional; details: 120 h, read-out: GI
Sclerotinia sclerotiorum [20] = assay: Antifungal activity against Sclerotinia sclerotiorum assessed as inhibition of mycelial growth in volatile phase at 39 umol/l measured at 20 degC after 5 days; type: functional; details: 120 h, read-out: GI
Sclerotinia sclerotiorum [21] = assay: Antifungal activity against Sclerotinia sclerotiorum assessed as inhibition of germination in volatile phase at 786 umol/l measured at 20 degC after 5 days; type: functional; details: 120 h
Sclerotinia sclerotiorum [22] = assay: Antifungal activity against Sclerotinia sclerotiorum assessed as inhibition of germination in volatile phase at 393 umol/l measured at 20 degC after 5 days; type: functional; details: 120 h
Sclerotinia sclerotiorum [23] = assay: Antifungal activity against Sclerotinia sclerotiorum assessed as inhibition of germination in volatile phase at 236 umol/l measured at 20 degC after 5 days; type: functional; details: 120 h
Sclerotinia sclerotiorum [24] = assay: Antifungal activity against Sclerotinia sclerotiorum assessed as inhibition of germination in volatile phase at 79 umol/l measured at 20 degC after 5 days; type: functional; details: 120 h
Sclerotinia sclerotiorum [25] = assay: Antifungal activity against Sclerotinia sclerotiorum assessed as inhibition of germination in volatile phase at 39 umol/l measured at 20 degC after 5 days; type: functional; details: 120 h
Sclerotinia sclerotiorum [26] = assay: Fungistatic activity in Sclerotinia sclerotiorum assessed as inhibition of mycelial growth in volatile phase at 550 umol/l measured at 20 degC after 5 days relative to control; type: functional; details: 120 h, read-out: GI
Sclerotinia sclerotiorum [27] = assay: In vivo antifungal Sclerotinia sclerotiorum in Pepper (Capsicum annuum L. cv. Sera Demre) assessed as inhibition of mycelial growth in volatile phase at 168 umol/L measured after 10 to 14 weeks; type: functional
Sclerotinia sclerotiorum [28] = assay: In vivo antifungal Sclerotinia sclerotiorum in Pepper (Capsicum annuum L. cv. Sera Demre) assessed as inhibition of mycelial growth in volatile phase at 84 umol/L measured after 10 to 14 weeks; type: functional
Sclerotinia sclerotiorum [29] = assay: Antifungal activity against Sclerotinia sclerotiorum assessed as inhibition of mycelial growth in contact phase at 2508 umol/l measured at 20 degC after 5 days; type: functional; details: 120 h, read-out: GI
Sclerotinia sclerotiorum [30] = assay: Antifungal activity against Sclerotinia sclerotiorum assessed as inhibition of mycelial growth in contact phase at 1672 umol/l measured at 20 degC after 5 days; type: functional; details: 120 h, read-out: GI
Sclerotinia sclerotiorum [31] = assay: Antifungal activity against Sclerotinia sclerotiorum assessed as inhibition of mycelial growth in contact phase at 836 umol/l measured at 20 degC after 5 days; type: functional; details: 120 h, read-out: GI
Sclerotinia sclerotiorum [32] = assay: Antifungal activity against Sclerotinia sclerotiorum assessed as inhibition of mycelial growth in contact phase at 752 umol/l measured at 20 degC after 5 days; type: functional; details: 120 h, read-out: GI
Sclerotinia sclerotiorum [33] = assay: Antifungal activity against Sclerotinia sclerotiorum assessed as inhibition of mycelial growth in contact phase at 585 umol/l measured at 20 degC after 5 days; type: functional; details: 120 h, read-out: GI
Sclerotinia sclerotiorum [34] = assay: Fungistatic activity in Sclerotinia sclerotiorum assessed as inhibition of carpogenic germination in volatile phase at 836 umol/l measured at 20 degC after 5 days relative to control; type: functional; details: 120 h
Sclerotinia sclerotiorum [35] = assay: Fungistatic activity in Sclerotinia sclerotiorum assessed as inhibition of carpogenic germination in volatile phase at 418 umol/l measured at 20 degC after 5 days relative to control; type: functional; details: 120 h
Sclerotinia sclerotiorum [36] = assay: Fungistatic activity in Sclerotinia sclerotiorum assessed as inhibition of carpogenic germination in volatile phase at 84 umol/l measured at 20 degC after 5 days relative to control; type: functional; details: AT84, 120 h
Sclerotinia sclerotiorum [37] = assay: Fungistatic activity in Sclerotinia sclerotiorum assessed as inhibition of carpogenic germination in volatile phase at 42 umol/l measured at 20 degC after 5 days relative to control; type: functional; details: 120 h
Sclerotinia sclerotiorum [38] = assay: Antifungal activity against Sclerotinia sclerotiorum assessed as inhibition of mycelial growth in volatile phase at 836 umol/l measured at 20 degC after 5 days; type: functional; details: 120 h, read-out: GI
Sclerotinia sclerotiorum [39] = assay: Antifungal activity against Sclerotinia sclerotiorum assessed as inhibition of mycelial growth in volatile phase at 585 umol/l measured at 20 degC after 5 days; type: functional; details: 120 h, read-out: GI
Sclerotinia sclerotiorum [40] = assay: Antifungal activity against Sclerotinia sclerotiorum assessed as inhibition of mycelial growth in volatile phase at 418 umol/l measured at 20 degC after 5 days; type: functional; details: 120 h, read-out: GI
Sclerotinia sclerotiorum [41] = assay: Fungistatic activity in Sclerotinia sclerotiorum assessed as viability in volatile phase at 418 umol/l measured at 20 degC after 5 days relative to control; type: functional; details: 120 h, read-out: GI
Sclerotinia sclerotiorum [42] = assay: Fungistatic activity in Sclerotinia sclerotiorum assessed as inhibition of mycelial growth in contact phase at 1672 umol/l measured at 20 degC after 5 days relative to control; type: functional; details: 120 h, read-out: GI
Sclerotinia sclerotiorum [43] = assay: Antifungal activity against Sclerotinia sclerotiorum assessed as inhibition of mycelial growth in volatile phase at 84 umol/l measured at 20 degC after 5 days; type: functional; details: 120 h, read-out: GI
Sclerotinia sclerotiorum [44] = assay: Antifungal activity against Sclerotinia sclerotiorum assessed as inhibition of mycelial growth in volatile phase at 42 umol/l measured at 20 degC after 5 days; type: functional; details: 120 h, read-out: GI
Sclerotinia sclerotiorum [45] = assay: Fungitoxic activity in Sclerotinia sclerotiorum assessed as inhibition of mycelial growth in contact phase at 2508 umol/l measured at 20 degC after 5 days relative to control; type: functional; details: 120 h
Sclerotinia sclerotiorum [46] = assay: Antifungal activity against Sclerotinia sclerotiorum assessed as inhibition of germination in volatile phase at 836 umol/l measured at 20 degC after 5 days; type: functional; details: 120 h
Sclerotinia sclerotiorum [47] = assay: Antifungal activity against Sclerotinia sclerotiorum assessed as inhibition of germination in volatile phase at 418 umol/l measured at 20 degC after 5 days; type: functional; details: 120 h
Sclerotinia sclerotiorum [48] = assay: Antifungal activity against Sclerotinia sclerotiorum assessed as inhibition of germination in volatile phase at 251 umol/l measured at 20 degC after 5 days; type: functional; details: 120 h
Sclerotinia sclerotiorum [49] = assay: Antifungal activity against Sclerotinia sclerotiorum assessed as inhibition of germination in volatile phase at 84 umol/l measured at 20 degC after 5 days; type: functional; details: AT84, 120 h
Sclerotinia sclerotiorum [50] = assay: Antifungal activity against Sclerotinia sclerotiorum assessed as inhibition of germination in volatile phase at 42 umol/l measured at 20 degC after 5 days; type: functional; details: 120 h
Sclerotinia sclerotiorum [51] = assay: Fungistatic activity in Sclerotinia sclerotiorum assessed as inhibition of mycelial growth in volatile phase at 836 umol/l measured at 20 degC after 5 days relative to control; type: functional; details: 120 h, read-out: GI

CCN=C=S [ETHYL ISOTHIOCYANATE]
inhibition in vivo at 158 µM (Sclerotinia sclerotiorum [1]): 70%
inhibition in vivo at 79 µM (Sclerotinia sclerotiorum [2]): 38.3%
inhibition of growth at 2358 µM (Sclerotinia sclerotiorum [3]): 100%
inhibition of growth at 1572 µM (Sclerotinia sclerotiorum [4]): 81.5%
inhibition of growth at 786 µM (Sclerotinia sclerotiorum [5]): 69.5%
inhibition of growth at 708 µM (Sclerotinia sclerotiorum [6]): 56.2%
inhibition of growth at 550 µM (Sclerotinia sclerotiorum [7]): 34.2%
inhibition at 786 µM (Sclerotinia sclerotiorum [8]): 87.5%
inhibition at 393 µM (Sclerotinia sclerotiorum [9]): 62.5%
inhibition at 79 µM (Sclerotinia sclerotiorum [10]): 52.5%
inhibition of growth at 786 µM (Sclerotinia sclerotiorum [11]): 100%
EC50 (Sclerotinia sclerotiorum [12]): 212 µM
EC50 (Sclerotinia sclerotiorum [13]): 157 µM
EC50 (Sclerotinia sclerotiorum [14]): 653 µM
inhibition of growth at 786 µM (Sclerotinia sclerotiorum [15]): 100%
inhibition of growth at 2358 µM (Sclerotinia sclerotiorum [16]): 100%
inhibition of growth at 550 µM (Sclerotinia sclerotiorum [17]): 100%
inhibition of growth at 393 µM (Sclerotinia sclerotiorum [18]): 56%
inhibition of growth at 79 µM (Sclerotinia sclerotiorum [19]): 30.8%
inhibition of growth at 39 µM (Sclerotinia sclerotiorum [20]): 5%
inhibition at 786 µM (Sclerotinia sclerotiorum [21]): 100%
inhibition at 393 µM (Sclerotinia sclerotiorum [22]): 66.7%
inhibition at 236 µM (Sclerotinia sclerotiorum [23]): 46.7%
inhibition at 79 µM (Sclerotinia sclerotiorum [24]): 26.7%
inhibition at 39 µM (Sclerotinia sclerotiorum [25]): 0%
inhibition of growth at 550 µM (Sclerotinia sclerotiorum [26]): 100%

S=C=Nc1ccccc1 [PHENYLISOTHIOCYANATE]
inhibition in vivo at 168 µM (Sclerotinia sclerotiorum [27]): 68.3%
inhibition in vivo at 84 µM (Sclerotinia sclerotiorum [28]): 61.7%
inhibition of growth at 2508 µM (Sclerotinia sclerotiorum [29]): 100%
inhibition of growth at 1672 µM (Sclerotinia sclerotiorum [30]): 100%
inhibition of growth at 836 µM (Sclerotinia sclerotiorum [31]): 65.5%
inhibition of growth at 752 µM (Sclerotinia sclerotiorum [32]): 23.7%
inhibition of growth at 585 µM (Sclerotinia sclerotiorum [33]): 5%
inhibition at 836 µM (Sclerotinia sclerotiorum [34]): 85%
inhibition at 418 µM (Sclerotinia sclerotiorum [35]): 52.5%
inhibition at 84 µM (Sclerotinia sclerotiorum [36]): 52.5%
inhibition at 42 µM (Sclerotinia sclerotiorum [37]): 12.5%
inhibition of growth at 836 µM (Sclerotinia sclerotiorum [38]): 100%
inhibition of growth at 585 µM (Sclerotinia sclerotiorum [39]): 74.2%
inhibition of growth at 418 µM (Sclerotinia sclerotiorum [40]): 70%
EC50 (Sclerotinia sclerotiorum [12]): 192 µM
EC50 (Sclerotinia sclerotiorum [13]): 134 µM
EC50 (Sclerotinia sclerotiorum [14]): 802 µM
inhibition of growth at 418 µM (Sclerotinia sclerotiorum [41]): 100%
inhibition of growth at 1672 µM (Sclerotinia sclerotiorum [42]): 100%
inhibition of growth at 84 µM (Sclerotinia sclerotiorum [43]): 42.8%
inhibition of growth at 42 µM (Sclerotinia sclerotiorum [44]): 20.8%
inhibition at 2508 µM (Sclerotinia sclerotiorum [45]): 100%
inhibition at 836 µM (Sclerotinia sclerotiorum [46]): 100%
inhibition at 418 µM (Sclerotinia sclerotiorum [47]): 100%
inhibition at 251 µM (Sclerotinia sclerotiorum [48]): 46.7%
inhibition at 84 µM (Sclerotinia sclerotiorum [49]): 13.3%
inhibition at 42 µM (Sclerotinia sclerotiorum [50]): 6.7%
inhibition of growth at 836 µM (Sclerotinia sclerotiorum [51]): 100%
